In patent US20210128566A1, “NOVEL FUNCTIONALIZED PURINE-2,6-DIONES AND THEIR USE IN MEDICINE” (THOMAS HELLEDAYS STIFTELSE FÖR MEDICINSK FORSKNING, priority 2017, published 2021):

Molecular target: recombinant human NUDT5 (Homo sapiens, UniProt Q9UKK9)
Experiment: NUDT5 inhibitor activity by malachite green reporter assay
Type: biochemical
Details: Table 3; 6 nM NUDT5, 50 μM ADP-Ribose, 15 minutes at room temperature
Procedure: NUDT5 inhibitors were evaluated using a coupled enzymatic assay with detection of inorganic phosphate (Pi) using the malachite green assay. Following enzymatic hydrolysis of ADP-Ribose (Sigma-Aldrich A0572) by NUDT5, to yield AMP and ribose-5-phosphate, the latter product is continuously processed by a significant excess of alkaline phosphatase (Sigma-Aldrich, P0114). Formation of Pi is quantified based on the green complex (that absorbs at 630 nm) formed between malachite green and molybdate according to published procedure (Baykov, A. A., Evtushenko, O. A. and Avaeva, S. M., Anal Biochem, 171, 266-270 (1988)). Assay buffer consisted of 10 mM Tris-acetate at pH 8.0, 40 mM sodium chloride, 10 mM magnesium acetate, 0.005% Tween-20 and 1 mM dithiothreitol (DTT). The final conditions consisted of 6 nM recombinant human NUDT5, 50 μM ADP-Ribose and 10 U/ml of calf intestine alkaline phosphatase. The plates with compounds, enzymes and substrate were incubated at room temperature for 15 minutes, after which the reaction was terminated and the signal developed by the addition of the malachite green reagent using a MultiDrop (Thermo Scientific). Following vigorous shaking on plate shakers for a minimum of eight minutes the absorbance was read in a microplate reader (HidexSense) using a filter at 630 nm and a read time of 0.1 s per well. Inhibitors were used in dilutions from 100 μM to 1.7 nM in 3-fold dilution steps. Experiments were run in duplicate and confirmed in two independent experiments. IC50 values were determined by curve fitting using ExcelFit.

`COC1CCN(c2nc3c(c(=O)n(C)c(=O)n3C)n2Cc2nnc(-c3ccc(Cl)c(Cl)c3)o2)CC1` [Example 43, 7-{[5-(3,4-dichlorophenyl)-1,3,4-oxadiazol-2-yl]methyl}-8-(4-methoxypiperidin-1-yl)-1,3-dimethyl-2,3,6,7-tetrahydro-1H-purine-2,6-dione] and `Cn1c(=O)c2c(nc(N3CCC(CCO)CC3)n2Cc2nnc(-c3ccc(Cl)c(Cl)c3)o2)n(C)c1=O` [Example 20, 7-{[5-(3,4-dichlorophenyl)-1,3,4-oxadiazol-2-yl]methyl}-8-[4-(2-hydroxyethyl)piperidin-1-yl]-1,3-dimethyl-2,3,6,7-tetrahydro-1H-purine-2,6-dione] are within 1.5-fold of each other in IC50: 26.8 nM for the first, 30 nM for the second.

Going from `Cn1c(=O)c2c(nc(N3CCCC3)n2Cc2nnc(-c3ccc(Cl)c(Cl)c3)o2)n(C)c1=O` [Example 28, 7-{[5-(3,4-dichlorophenyl)-1,3,4-oxadiazol-2-yl]methyl}-1,3-dimethyl-8-(pyrrolidin-1-yl)-2,3,6,7-tetrahydro-1H-purine-2,6-dione] to `CN1CCN(c2nc3c(c(=O)n(C)c(=O)n3C)n2Cc2nnc(-c3ccc(Cl)c(Cl)c3)o2)CC1` [Example 18, 7-{[5-(3,4-dichlorophenyl)-1,3,4-oxadiazol-2-yl]methyl}-1,3-dimethyl-8-(4-methylpiperazin-1-yl)-2,3,6,7-tetrahydro-1H-purine-2,6-dione], the IC50 rises from 37 nM to 151 nM (4.1-fold). The first is the more potent here.

`Cn1c(=O)c2c(nc(NC3CC3)n2Cc2nnc(-c3ccc(Cl)c(Cl)c3)o2)n(C)c1=O` [Example 42, 8-(cyclopropylamino)-7-{[5-(3,4-dichlorophenyl)-1,3,4-oxadiazol-2-yl]methyl}-1,3-dimethyl-2,3,6,7-tetrahydro-1H-purine-2,6-dione] and `Cc1nc2c(c(=O)n(C)c(=O)n2C)n1Cc1nnc(-c2ccc(Cl)c(Cl)c2)o1` [Example 60, 7-{[5-(3,4-dichlorophenyl)-1,3,4-oxadiazol-2-yl]methyl}-1,3,8-trimethyl-2,3,6,7-tetrahydro-1H-purine-2,6-dione] are within 1.5-fold of each other in IC50: 26.4 nM for the first, 28.4 nM for the second.

`Cn1c(=O)c2c(nc(N3CCN(CCN)CC3)n2Cc2nnc(-c3ccc(Cl)c(Cl)c3)o2)n(C)c1=O` [Example 30, 8-[4-(2-aminoethyl)piperazin-1-yl]-7-{[5-(3,4-dichlorophenyl)-1,3,4-oxadiazol-2-yl]methyl}-1,3-dimethyl-2,3,6,7-tetrahydro-1H-purine-2,6-dione] and `Cn1c(=O)c2c(nc(N3CCC(O)C3)n2Cc2nnc(-c3ccc(Cl)c(Cl)c3)o2)n(C)c1=O` (centres unmarked) [Example 34, 7-{[5-(3,4-dichlorophenyl)-1,3,4-oxadiazol-2-yl]methyl}-8-(3-hydroxypyrrolidin-1-yl)-1,3-dimethyl-2,3,6,7-tetrahydro-1H-purine-2,6-dione] are within 1.5-fold of each other in IC50: 33.2 nM for the first, 24.7 nM for the second.

Going from `Cc1cccc(-c2nnc(Cn3c(N(C)C)nc4c3c(=O)n(C)c(=O)n4C)o2)c1` [Example 48, 8-(dimethylamino)-1,3-dimethyl-7-{[5-(3-methylphenyl)-1,3,4-oxadiazol-2-yl]methyl}-2,3,6,7-tetrahydro-1H-purine-2,6-dione] to `CCCc1nc2c(c(=O)n(C)c(=O)n2C)n1Cc1nnc(-c2ccc(Cl)c(Cl)c2)o1` [Example 61, 7-{[5-(3,4-dichlorophenyl)-1,3,4-oxadiazol-2-yl]methyl}-1,3-dimethyl-8-propyl-2,3,6,7-tetrahydro-1H-purine-2,6-dione], the IC50 rises from 69.4 nM to 246 nM (3.5-fold). The first is the more potent here.

Compared with `Cn1c(=O)c2c(nc(S(=O)(=O)C3CCCCC3)n2Cc2nnc(-c3ccc(Cl)c(Cl)c3)o2)n(C)c1=O` [Example 24, 8-(cyclohexanesulfonyl)-7-{[5-(3,4-dichlorophenyl)-1,3,4-oxadiazol-2-yl]methyl}-1,3-dimethyl-2,3,6,7-tetrahydro-1H-purine-2,6-dione], `CCSc1nc2c(c(=O)n(C)c(=O)n2C)n1Cc1nnc(-c2ccc(Cl)c(Cl)c2)o1` [Example 6, 7-{[5-(3,4-dichlorophenyl)-1,3,4-oxadiazol-2-yl]methyl}-8-(ethylsulfanyl)-1,3-dimethyl-2,3,6,7-tetrahydro-1H-purine-2,6-dione] is 1.6-fold higher in IC50: 22.7 nM for the first, 36.9 nM for the second. The first is the more potent here.

Same assay, conditions: Table 4; 6 nM NUDT5, 50 μM ADP-Ribose, 15 minutes at room temperature

Going from `Cn1c(=O)c2c(nc(N3CCNCC3)n2Cc2nnc(-c3ccc(N4CCNCC4)nc3)o2)n(C)c1=O` [Example 114, 1,3-dimethyl-8-(piperazin-1-yl)-7-({5-[6-(piperazin-1-yl)pyridin-3-yl]-1,3,4-oxadiazol-2-yl}methyl)-2,3,6,7-tetrahydro-1H-purine-2,6-dione] to `Cn1c(=O)c2c(nc(N3CCNCC3)n2Cc2nnc(-c3cccc(F)c3)o2)n(C)c1=O` [Example 110, 7-{[5-(3-fluorophenyl)-1,3,4-oxadiazol-2-yl]methyl}-1,3-dimethyl-8-(piperazin-1-yl)-2,3,6,7-tetrahydro-1H-purine-2,6-dione], the IC50 falls from 29000 nM to 129 nM (220-fold).

Compared with `COc1cc(-c2nnc(Cn3c(N4CCNCC4)nc4c3c(=O)n(C)c(=O)n4C)o2)ccc1Cl` [Example 117, 7-{[5-(4-chloro-3-methoxyphenyl)-1,3,4-oxadiazol-2-yl]methyl}-1,3-dimethyl-8-(piperazin-1-yl)-2,3,6,7-tetrahydro-1H-purine-2,6-dione], `COc1cccc(-c2nnc(Cn3c(N4CCNCC4)nc4c3c(=O)n(C)c(=O)n4C)o2)c1` [Example 111, 7-{[5-(3-methoxyphenyl)-1,3,4-oxadiazol-2-yl]methyl}-1,3-dimethyl-8-(piperazin-1-yl)-2,3,6,7-tetrahydro-1H-purine-2,6-dione] is 1.9-fold higher in IC50: 64.2 nM for the first, 119 nM for the second. The first is the more potent here.

First: Cn1c(=O)c2c(nc(N3CCC(C(N)=O)CC3)n2Cc2nnc(-c3ccc(Cl)c(Cl)c3)o2)n(C)c1=O [Example 136, 1-(7-{[5-(3,4-dichlorophenyl)-1,3,4-oxadiazol-2-yl]methyl}-1,3-dimethyl-2,6-dioxo-2,3,6,7-tetrahydro-1H-purin-8-yl)piperidine-4-carboxamide]
Second: CCOC(=O)c1cn2c(n1)CN(c1nc3c(c(=O)n(C)c(=O)n3C)n1Cc1nnc(-c3ccc(Cl)c(Cl)c3)o1)CC2 [Example 81, ethyl 7-(7-{[5-(3,4-dichlorophenyl)-1,3,4-oxadiazol-2-yl]methyl}-1,3-dimethyl-2,6-dioxo-2,3,6,7-tetrahydro-1H-purin-8-yl)-5H,6H,7H,8H-imidazo[1,2-a]pyrazine-2-carboxylate]
The IC50 of the first is 18-fold lower: 8.27 nM for the first, 149 nM for the second. The first is the more potent here.

`Cn1c(=O)c2c(nc(Cl)n2Cc2nnc(-c3ccc4cc[nH]c4c3)o2)n(C)c1=O` [Example 101, 8-chloro-7-{[5-(1H-indol-6-yl)-1,3,4-oxadiazol-2-yl]methyl}-1,3-dimethyl-2,3,6,7-tetrahydro-1H-purine-2,6-dione] and `Cn1c(=O)c2c(nc(NCCS(=O)(=O)O)n2Cc2nnc(-c3ccc(Cl)c(Cl)c3)o2)n(C)c1=O` [Example 82, 2-[(7-{[5-(3,4-dichlorophenyl)-1,3,4-oxadiazol-2-yl]methyl}-1,3-dimethyl-2,6-dioxo-2,3,6,7-tetrahydro-1H-purin-8-yl)amino]ethane-1-sulfonic acid] are within 1.5-fold of each other in IC50: 358 nM for the first, 454 nM for the second.

Going from `Cc1ccc(-c2cc(Cn3c(N4CCNCC4)nc4c3c(=O)n(C)c(=O)n4C)no2)cc1` [Example 79, 1,3-dimethyl-7-{[5-(4-methylphenyl)-1,2-oxazol-3-yl]methyl}-8-(piperazin-1-yl)-2,3,6,7-tetrahydro-1H-purine-2,6-dione] to `Cn1c(=O)c2c(nc(N3CCNCC3)n2Cc2nnc(-c3ccc([N+](=O)[O-])cc3)o2)n(C)c1=O` [Example 115, 1,3-dimethyl-7-{[5-(4-nitrophenyl)-1,3,4-oxadiazol-2-yl]methyl}-8-(piperazin-1-yl)-2,3,6,7-tetrahydro-1H-purine-2,6-dione], the IC50 falls from 530 nM to 286 nM (1.9-fold). The second is the more potent here.

First: COc1cc(-c2nnc(Cn3c(N4CCC(CN)CC4)nc4c3c(=O)n(C)c(=O)n4C)o2)ccc1C [Example 127, 8-[4-(aminomethyl)piperidin-1-yl]-7-{[5-(3-methoxy-4-methylphenyl)-1,3,4-oxadiazol-2-yl]methyl}-1,3-dimethyl-2,3,6,7-tetrahydro-1H-purine-2,6-dione]
Second: COc1cc(-c2nnc(Cn3c(N4CCC(CO)CC4)nc4c3c(=O)n(C)c(=O)n4C)o2)ccc1C [Example 130, 8-[4-(hydroxymethyl)piperidin-1-yl]-7-{[5-(3-methoxy-4-methylphenyl)-1,3,4-oxadiazol-2-yl]methyl}-1,3-dimethyl-2,3,6,7-tetrahydro-1H-purine-2,6-dione]
The IC50 of the first is 6.2-fold lower: 32.9 nM for the first, 205 nM for the second. The first is the more potent here.

First: Cn1c(=O)c2c(nc(N3CCN(C(=O)OC(C)(C)C)CC3)n2Cc2nnc(-c3ccc([N+](=O)[O-])cc3)o2)n(C)c1=O [Example 100, tert-butyl 4-(1,3-dimethyl-7-{[5-(4-nitrophenyl)-1,3,4-oxadiazol-2-yl]methyl}-2,6-dioxo-2,3,6,7-tetrahydro-1H-purin-8-yl)piperazine-1-carboxylate]
Second: CCOC(=O)c1cnn(-c2nc3c(c(=O)n(C)c(=O)n3C)n2Cc2nnc(-c3ccc(Cl)c(Cl)c3)o2)c1 [Example 68, ethyl 1-(7-{[5-(3,4-dichlorophenyl)-1,3,4-oxadiazol-2-yl]methyl}-1,3-dimethyl-2,6-dioxo-2,3,6,7-tetrahydro-1H-purin-8-yl)-1H-pyrazole-4-carboxylate]
The IC50 of the first is 44-fold higher: 9440 nM for the first, 214 nM for the second. The second is the more potent here.
